Patent US7888329B2, “Substituted aryl piperidinylalkynyladenosines as A2AR agonists” (PGxHealth, LLC, priority 2006, dated 2011)

Tests used:
human A1 AR = molecular target: T1, human A1 AR (Homo sapiens, UniProt P30542); test: Radioligand competition binding with 125I-ABA, membranes of CHO K1 cells stably expressing the receptor; details: Ki derived from IC50, class symbols
T1 construct: expressed in transfected cells; membranes
T1 sequence (P30542 1-326): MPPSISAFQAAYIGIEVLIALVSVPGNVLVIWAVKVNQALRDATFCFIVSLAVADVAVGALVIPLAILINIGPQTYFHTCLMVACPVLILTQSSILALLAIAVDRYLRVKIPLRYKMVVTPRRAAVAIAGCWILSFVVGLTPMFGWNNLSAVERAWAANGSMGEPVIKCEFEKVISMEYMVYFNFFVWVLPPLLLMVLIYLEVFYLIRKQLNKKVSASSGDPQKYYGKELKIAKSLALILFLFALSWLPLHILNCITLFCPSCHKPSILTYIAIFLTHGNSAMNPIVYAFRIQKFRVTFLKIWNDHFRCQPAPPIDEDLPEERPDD

[1] = molecular target: T2, recombinant human A2A receptors (Homo sapiens, UniProt P29274); test: Radioligand competition binding with 125I-APE or 125I-ZM241385, Sf9 cell membranes; details: 125I-APE or 125I-ZM241385, Sf9 membranes; class symbols
T2 construct: expressed in transfected cells; host or cells: Sf9 insect cells infected with virus; membranes
Experimental: Cell culture and membrane preparation. Sf9 cells were cultured in Grace's medium supplemented with 10% fetal bovine serum, 2.5 μg/ml amphotericin B and 50 μg/ml gentamycin in an atmosphere of 50% N2/50% O2. Viral infection was performed at a density of 2.5×10^6 cells/mL with a multiplicity of infection of two for each virus used. Infected cells were harvested 3 days post-infection and washed twice in insect PBS (PBS pH 6.3). Cells were then resuspended in lysis buffer (20 mM HEPES pH 7.5, 150 mM NaCl, 3 mM MgCl2, 1 mM α-mercaptoethanol (BME), 5 μg/mL leupeptin, 5 μg/mL pepstatin A, 1 μg/mL aprotinin, and 0.1 mM PMSF) and snap frozen for storage at −80° C. Cells were thawed on ice, brought to 30 mL total volume in lysis buffer, and burst by N2 cavitation (600 psi for 20 minutes). A low-speed centrifugation was performed to remove any unlysed cells (1000×g for 10 minutes), followed by a high-speed centrifugation (17,000×g for 30 minutes). The pellet from the final centrifugation was homogenized in buffer containing 20 mM HEPES pH 8, 1100 mM NaCl, 1% glycerol, 2 μg/mL leupeptin, 2 μg/mL pepstatin A, 2 μg/mL Aprotinin, 0.1 mM PMSF, and 10 μM GDP using a small glass homogenizer followed by passage through a 26 gauge needle. Membranes were aliquoted, snap frozen in liquid N2, and stored at −80° C.
Radioligand Binding Assays. […] Binding experiments were performed in triplicate with 5 μg (A2A) or 25 μg (A1 and A3) membrane protein in a total volume of 00.1 mL HE buffer (20 mM HEPES and 1 mM EDTA) with 1 U/mL adenosine deaminase and 5 mM MgCl2 with or without 50 μM GTPγS. Membranes were incubated with radioligands at room temperature for three hours (for agonists) or two hours (for antagonists) in Millipore Multiscreen® 96-well GF/C filter plates and assays were terminated by rapid filtration on a cell harvester (Brandel, Gaithersburg, Md.) followed by 4×150 μl washes over 30 seconds with ice cold 10 mM Tris-HCl, pH 7.4, 10 mM MgCl2. Nonspecific binding was measured in the presence of 50 μM NECA.

[2] = system: Purified human neutrophils; test: Luminol enhanced chemiluminescence (neutrophil oxidative activity), fMLP stimulated; format: cell-based; details: Homo sapiens, Neutrophil; read-out: Functional
Source text: Chemiluminescence Methods: Luminol enhanced chemiluminescence, a measure of neutrophil oxidative activity, is dependent upon both superoxide production and mobilization of the granule enzyme myeloperoxidase. The light is emitted from unstable high-energy oxygen species such as hypochlorous acid and singlet oxygen generated by activated neutrophils.
Purified human neutrophils (2×10^6/ml) suspended in Hanks balanced salt solution containing 0.1% human serum albumin (HA), adenosine deaminase (1 U/mL) and rolipram (100 nM) were incubated (37 C) in a water bath for 15 min with or without rhTNF (10 U/ml). Following incubation 100 µL aliquots of the PMN were transferred to wells (White walled clear bottom 96 well tissue culture plates Costar #3670; 2 wells/condition) containing […] and luminol (final concentration 100M) with or without adenosine agonist (final agonist concentrations 0.01-1000 nM). The plate was incubated 5 min (37 C) and then fMLP (50 l in HA; final concentration […]) was added to all wells.
Peak chemiluminescence was determined with a Victor 1420 Multilabel Counter in the chemiluminescence mode using the Wallac Workstation software. Data are presented as peak chemiluminescence as percent of activity in the absence of an adenosine agonist. The EC50 was determined using PRISM software. All compounds were tested with PMNs from three separate donors.

human A3 AR = molecular target: T3, human A3 AR (Homo sapiens, UniProt P0DMS8); test: Radioligand competition binding with 125I-ABA, membranes of HEK 293 cells stably expressing the receptor; details: Ki derived from IC50, class symbols
T3 construct: expressed in transfected cells; membranes
T3 sequence (P0DMS8 1-318): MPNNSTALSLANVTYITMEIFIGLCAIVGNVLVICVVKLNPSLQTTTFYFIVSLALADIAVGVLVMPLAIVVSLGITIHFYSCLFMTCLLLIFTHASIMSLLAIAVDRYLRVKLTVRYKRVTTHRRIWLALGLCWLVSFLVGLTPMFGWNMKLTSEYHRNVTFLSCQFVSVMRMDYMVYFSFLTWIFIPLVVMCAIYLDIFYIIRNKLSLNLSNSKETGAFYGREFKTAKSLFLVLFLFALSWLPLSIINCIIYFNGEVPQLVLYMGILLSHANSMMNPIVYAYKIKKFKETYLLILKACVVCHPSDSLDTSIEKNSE
Experimental: Cell culture and membrane preparation. Sf9 cells were cultured in Grace's medium supplemented with 10% fetal bovine serum, 2.5 μg/ml amphotericin B and 50 μg/ml gentamycin in an atmosphere of 50% N2/50% O2. Viral infection was performed at a density of 2.5×10^6 cells/mL with a multiplicity of infection of two for each virus used. Infected cells were harvested 3 days post-infection and washed twice in insect PBS (PBS pH 6.3). Cells were then resuspended in lysis buffer (20 mM HEPES pH 7.5, 150 mM NaCl, 3 mM MgCl2, 1 mM α-mercaptoethanol (BME), 5 μg/mL leupeptin, 5 μg/mL pepstatin A, 1 μg/mL aprotinin, and 0.1 mM PMSF) and snap frozen for storage at −80° C. Cells were thawed on ice, brought to 30 mL total volume in lysis buffer, and burst by N2 cavitation (600 psi for 20 minutes). A low-speed centrifugation was performed to remove any unlysed cells (1000×g for 10 minutes), followed by a high-speed centrifugation (17,000×g for 30 minutes). The pellet from the final centrifugation was homogenized in buffer containing 20 mM HEPES pH 8, 1100 mM NaCl, 1% glycerol, 2 μg/mL leupeptin, 2 μg/mL pepstatin A, 2 μg/mL Aprotinin, 0.1 mM PMSF, and 10 μM GDP using a small glass homogenizer followed by passage through a 26 gauge needle. Membranes were aliquoted, snap frozen in liquid N2, and stored at −80° C. Membranes from cells stably expressing the human A1 AR (CHO K1 cells) or A3 AR (HEK 293 cells) were prepared as described (Robeva et al., 1996).
Radioligand Binding Assays. Radioligand binding to recombinant human A2A receptors in Sf9 cell membranes was performed using either the radiolabeled agonist, ^125I-APE (Luthin et al., 1995) or the radiolabeled antagonist, ^125I-ZM241385 (^125I-ZM). To detect the high affinity, GTPγS-sensitive state of A1 and A3 AR, we used the agonist, ^125I-ABA (Linden et al., 1985; Linden et al., 1993). Binding experiments were performed in triplicate with 5 μg (A2A) or 25 μg (A1 and A3) membrane protein in a total volume of 00.1 mL HE buffer (20 mM HEPES and 1 mM EDTA) with 1 U/mL adenosine deaminase and 5 mM MgCl2 with or without 50 μM GTPγS. Membranes were incubated with radioligands at room temperature for three hours (for agonists) or two hours (for antagonists) in Millipore Multiscreen® 96-well GF/C filter plates and assays were terminated by rapid filtration on a cell harvester (Brandel, Gaithersburg, Md.) followed by 4×150 μl washes over 30 seconds with ice cold 10 mM Tris-HCl, pH 7.4, 10 mM MgCl2. Nonspecific binding was measured in the presence of 50 μM NECA. Competition binding assays were performed as described (Robeva et al., 1996) using 0.5-1 nM ^125I-APE, ^125I-ZM241385, or ^125I-ABA. […] The Ki values for competing compound binding to a single site were derived from IC50 values with correction for radioligand and competing compound depletion as described previously (Linden, 1982).

T2 sequence (P29274 whole entry): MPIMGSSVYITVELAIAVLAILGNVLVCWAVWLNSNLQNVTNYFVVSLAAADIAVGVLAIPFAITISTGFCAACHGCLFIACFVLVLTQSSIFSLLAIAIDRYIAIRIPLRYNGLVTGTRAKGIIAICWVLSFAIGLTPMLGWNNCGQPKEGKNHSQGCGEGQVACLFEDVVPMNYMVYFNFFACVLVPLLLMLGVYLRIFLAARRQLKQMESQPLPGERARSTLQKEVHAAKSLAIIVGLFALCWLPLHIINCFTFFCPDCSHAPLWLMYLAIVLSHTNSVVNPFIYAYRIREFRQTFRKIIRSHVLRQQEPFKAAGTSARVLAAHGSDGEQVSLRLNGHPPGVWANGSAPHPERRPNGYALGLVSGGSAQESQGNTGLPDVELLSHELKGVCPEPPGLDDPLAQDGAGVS

Structure (SMILES) | Ki (human A1 AR) [nM] | Ki [1] [nM] | EC50 [2] [nM] | Ki (human A3 AR) [nM]
Nc1nc(C#CCC2CCN(C(=O)Oc3ccc(F)cc3)CC2)nc2c1ncn2[C@@H]1O[C@H](CO)[C@@H](O)[C@H]1O [Compound 11, 2-{3-[1-((4-Fluorophenoxy)carbonyl)piperidin-4-yl]propyn-1-yl}adenosine] | < 100 | < 1 | < 10 | < 100
Nc1nc(C#CCC2CCN(C(=O)Oc3ccc([N+](=O)[O-])cc3)CC2)nc2c1ncn2[C@@H]1O[C@H](CO)[C@@H](O)[C@H]1O [Compound 12, 2-{3-[1-((4-Nitrophenoxy)carbonyl)piperidin-4-yl]propyn-1-yl}adenosine] | < 100 | < 1 | < 1 | < 100
COC(=O)c1ccc(OC(=O)N2CCC(CC#Cc3nc(N)c4ncn([C@@H]5O[C@H](CO)[C@@H](O)[C@H]5O)c4n3)CC2)cc1 [Compound 13, 2-{3-[1-((4-Methoxycarbonylphenoxy)carbonyl)piperidin-4-yl]propyn-1-yl}adenosine] | < 100 | < 1 | < 10 | < 100
Nc1nc(C#CCC2CCN(C(=O)Oc3ccc(C(=O)O)cc3)CC2)nc2c1ncn2[C@@H]1O[C@H](C(=O)NC2CC2)C(O)[C@@H]1O (some centres unmarked) [Compound 14, N-Cyclopropyl 2-{3-[1-(4-carboxyphenoxycarbonyl)-4-piperidinyl]-1-propyn-1-yl}adenosine-5′-uronamide] | > 100 | < 10 | < 100 | > 100
CCNC(=O)[C@H]1O[C@@H](n2cnc3c(N)nc(C#CCC4CCN(C(=O)Oc5ccc(OC)cc5)CC4)nc32)[C@@H](O)C1O (some centres unmarked) [Compound 15, N-Ethyl 2-{3-[1-(4-methoxyphenoxycarbonyl)-4-piperidinyl]-1-propyn-1-yl}adenosine-5′-uronamide] | < 100 | < 1 | < 1 | < 10
CCNC(=O)[C@H]1O[C@@H](n2cnc3c(N)nc(C#CCC4CCN(C(=O)Oc5ccc(C)cc5)CC4)nc32)[C@@H](O)C1O (some centres unmarked) [Compound 16, N-Ethyl 2-{3-[1-(4-methylphenoxycarbonyl)-4-piperidinyl]-1-propyn-1-yl}adenosine-5′-uronamide] | < 100 | < 1 | < 1 | < 10
Nc1nc(C#CCC2CCN(C(=O)Oc3ccc(Cl)cc3)CC2)nc2c1ncn2[C@@H]1O[C@H](C(=O)NC2CC2)C(O)[C@@H]1O (some centres unmarked) [Compound 17, N-Cyclopropyl 2-{3-[1-(4-chlorophenoxycarbonyl)-4-piperidinyl]-1-propyn-1-yl}adenosine-5′-uronamide] | < 100 | < 1 | < 1 | < 100
Nc1nc(C#CCC2CCN(C(=O)OCc3ccc([N+](=O)[O-])cc3)CC2)nc2c1ncn2[C@@H]1O[C@H](C(=O)NC2CC2)C(O)[C@@H]1O (some centres unmarked) [Compound 18, N-Cyclopropyl 2-{3-[1-(4-nitrobenzloxycarbonyl)-4-piperidinyl]-1-propyn-1-yl}adenosine-5′-uronamide] | < 100 | < 1 | < 1 | < 100
CCNC(=O)[C@H]1O[C@@H](n2cnc3c(N)nc(C#CCC4CCN(C(=O)Oc5ccc([N+](=O)[O-])cc5)CC4)nc32)[C@@H](O)C1O (some centres unmarked) [Compound 19, N-Ethyl 2-{3-[1-(4-nitrophenyloxycarbonyl)-4-piperidinyl]-1-propyn-1-yl}adenosine-5′-uronamide] | < 100 | < 1 | < 1 | < 10
Cc1ccc(OC(=O)N2CCC(CC#Cc3nc(N)c4ncn([C@@H]5O[C@H](C(=O)NC6CC6)C(O)[C@@H]5O)c4n3)CC2)cc1 (some centres unmarked) [Compound 20, N-Cyclopropyl 2-{3-[1-(4-methylphenyloxycarbonyl)-4-piperidinyl]-1-propyn-1-yl}adenosine-5′-uronamide] | < 100 | < 1 | < 1 | > 100
COc1ccccc1OC(=O)N1CCC(CC#Cc2nc(N)c3ncn([C@@H]4O[C@H](C(=O)NC5CC5)C(O)[C@@H]4O)c3n2)CC1 (some centres unmarked) [Compound 21, N-Cyclopropyl 2-{3-[1-(2-methoxyphenyloxycarbonyl)-4-piperidinyl]-1-propyn-1-yl}adenosine-5′-uronamide] | < 100 | < 1 | < 10 | < 100
